Values of other authors, collected in US12569478B2 (priority 2021, dated 2026).

Conditions: in vivo

## C=CCN1CC[C@]23c4c5ccc(O)c4O[C@H]2C(=O)CC[C@@]3(O)[C@H]1C5 [naloxone]
  half-life: ~1 h
